Laboratory results taken from ChEMBL document CHEMBL4715854, “Discovery of Roblitinib (FGF401) as a Reversible-Covalent Inhibitor of the Kinase Activity of Fibroblast Growth Factor Receptor 4” (J Med Chem, 2020).
≈ marks a conversion by molar mass, not a printed value.

Key:
[1] = Cmax in mouse xenografted with human Huh-7 cells at 3 mg/kg, po BID administered for 8 days; type: ADME, organism-based; set-up: route oral, time 8 day, dose 3 mg/kg; settings: in vivo
[2] = Dissociation constant, pKa of compound by potentiometric titration method; type: physicochemical
[3] = Clearance in human cryopreserved hepatocytes at 1 uM incubated from 1 to 80 mins by LC-MS/MS analysis; type: ADME, cell-based, Hepatocyte; settings: time 1-80 min
[4] = Clearance in human liver microsome at 10 mM measured after 15 mins in presence of NADPH by LC-MS analysis; type: ADME; settings: liver microsomes, read-out: CLH
[5] = Volume of distribution at steady state in female Balb/c mouse at 1 mg/kg, iv or 3 mg/kg, po; type: ADME, organism-based; settings: in vivo, read-out: Vdss
[6] = AUC (0-48 hrs) in mouse xenografted with human Huh-7 cells at 6 mg/kg, po qd administered for 8 days; type: ADME, organism-based; set-up: route oral, time 8 day, dose 6 mg/kg; settings: in vivo
[7] = Oral bioavailability in female Balb/c mouse at 3 mg/kg; type: ADME, organism-based; settings: in vivo
[8] = Cmax in mouse xenografted with human Huh-7 cells at 6 mg/kg, po qd administered for 8 days; type: ADME, organism-based; set-up: route oral, dose 6 mg/kg, time 8 day; settings: in vivo
[9] = Half-life in Beagle dog at 0.1 mg/kg, iv or 0.3 mg/kg, po by LC-MS/MS analysis; type: ADME, organism-based, Canis lupus familiaris; settings: in vivo
[10] = Clearance in rat liver microsome at 10 mM measured after 15 mins in presence of NADPH by LC-MS analysis; type: ADME; settings: liver microsomes, read-out: CLH
[11] = Clearance in mouse cryopreserved hepatocytes at 1 uM incubated from 1 to 80 mins by LC-MS/MS analysis; type: ADME, cell-based, Hepatocyte; settings: time 1-80 min
[12] = Half life in rat liver S9 fraction at 1 uM in presence of NADPH incubated upto 120 mins by LC-MS/MS analysis; type: ADME, subcellular
[13] = Half life in mouse liver S9 fraction at 1 uM in presence of NADPH incubated upto 120 mins by LC-MS/MS analysis; type: ADME, subcellular
[14] = Half life in mouse intestinal S9 fraction in presence of NADPH; type: ADME, subcellular, Intestine
[15] = Apparent permeability of compound across apical to basolateral side in human Caco2 cells at 10 mM incubated for 120 mins by lucifer yellow based LC/MS/MS analysis; type: ADME, cell-based; settings: Caco-2
[16] = Clearance in dog cryopreserved hepatocytes at 1 uM incubated from 1 to 80 mins by LC-MS/MS analysis; type: ADME, cell-based, Canis lupus familiaris, Hepatocyte; settings: time 1-80 min
[17] = Thermodynamic solubility of compound in phosphate buffer at pH 6.8 measured after 15 mins by shake-flask method based LC-HRMS analysis; type: physicochemical; settings: read-out: Therm_solubility
[18] = Half life in human liver S9 fraction at 1 uM in presence of NADPH incubated upto 120 mins by LC-MS/MS analysis; type: ADME, subcellular
[19] = Half life in dog intestinal S9 fraction in presence of NADPH; type: ADME, subcellular, Canis lupus familiaris, Intestine; settings: time 120 min
[20] = Half life in human intestinal S9 fraction in presence of NADPH; type: ADME, subcellular, Intestine
[21] = Clearance in Sprague-Dawley rat at 0.5 mg/kg, iv or 3 mg/kg, po measured upto 24 hrs by LC-MS/MS analysis; type: ADME, organism-based; settings: in vivo
[22] = Volume of distribution at steady state in Crl:CD (SD) rat at 1 mg/kg, iv or 3 mg/kg, po measured upto 24 hrs by LC-MS/MS analysis; type: ADME, organism-based; settings: in vivo, read-out: Vdss
[23] = AUC (0-48 hrs) in mouse xenografted with human Huh-7 cells at 3 mg/kg, po BID administered for 8 days; type: ADME, organism-based; set-up: route oral, dose 3 mg/kg, time 8 day; settings: in vivo, 192 h
[24] = Half-life in female Balb/c mouse at 1 mg/kg, iv or 3 mg/kg, po; type: ADME, organism-based; settings: in vivo
[25] = Clearance in Beagle dog at 0.1 mg/kg, iv or 0.3 mg/kg, po by LC-MS/MS analysis; type: ADME, organism-based, Canis lupus familiaris; settings: in vivo
[26] = Clearance in dog liver microsome at 10 mM measured after 15 mins in presence of NADPH by LC-MS analysis; type: ADME, Canis lupus familiaris; settings: liver microsomes, read-out: CLH
[27] = Half-life in Sprague-Dawley rat at 0.5 mg/kg, iv or 3 mg/kg, po measured upto 24 hrs by LC-MS/MS analysis; type: ADME, organism-based; settings: in vivo
[28] = Oral bioavailability in Crl:CD (SD) rat at 3 mg/kg measured upto 24 hrs by LC-MS/MS analysis; type: ADME, organism-based; settings: Crl:CD (SD), in vivo
[29] = Half life in dog liver S9 fraction at 1 uM in presence of NADPH incubated upto 120 mins by LC-MS/MS analysis; type: ADME, subcellular, Canis lupus familiaris
[30] = Apparent permeability of compound across basolateral to apical side in human Caco2 cells at 10 mM incubated for 120 mins by lucifer yellow based LC/MS/MS analysis; type: ADME, cell-based; settings: Caco-2
[31] = AUC (0-48 hrs) in mouse xenografted with human Huh-7 cells at 12 mg/kg, po administered every other day for 8 days; type: ADME, organism-based; set-up: route oral, time 8 day, dose 12 mg/kg; settings: in vivo
[32] = Volume of distribution at steady state in Beagle dog at 0.1 mg/kg, iv or 0.3 mg/kg, po by LC-MS/MS analysis; type: ADME, organism-based, Canis lupus familiaris; settings: in vivo, read-out: Vdss
[33] = Cmax in mouse xenografted with human Huh-7 cells at 12 mg/kg, po administered every other day for 8 days; type: ADME, organism-based; set-up: route oral, time 8 day, dose 12 mg/kg; settings: in vivo
[34] = Half life in rat intestinal S9 fraction in presence of NADPH; type: ADME, subcellular, Intestine
[35] = Clearance in mouse liver microsome at 10 mM measured after 15 mins in presence of NADPH by LC-MS analysis; type: ADME; settings: liver microsomes, read-out: CLH
[36] = Oral bioavailability in Beagle dog at 0.3 mg/kg by LC-MS/MS analysis; type: ADME, organism-based, Canis lupus familiaris; settings: Beagle, in vivo
[37] = Clearance in rat cryopreserved hepatocytes at 1 uM incubated from 1 to 80 mins by LC-MS/MS analysis; type: ADME, cell-based, Hepatocyte; settings: time 1-80 min
[38] = Drug metabolism in Crl:CD (SD) rat at 1 mg/kg, iv assessed as N-(5-cyanopyridin-2-yl)-7-formyl-3,4-dihydro-1,8-naphthyridine-1(2H)-carboxamide metabolite formation by LC-MS/MS analysis; type: ADME, organism-based; settings: in vivo
[39] = Drug metabolism in rat liver microsomes assessed as N-(5-cyanopyridin-2-yl)-7-formyl-3,4-dihydro-1,8-naphthyridine-1(2H)-carboxamide metabolite formation in presence of NADPH by LC-MS analysis; type: ADME, Microsome

Which Cmax [1] does the source give for `COCCOc1cc(NC(=O)N2CCCc3cc(CN4CCN(C)CC4=O)c(C=O)nc32)ncc1C#N` here?
The Cmax was 180 nM.

And the pKa [2]?
Its pKa is 5.3.

What about the CLH [3] of the same molecule?
The CLH was 5.7 µL/min/mg.

And the microsomal CLint at […], 10000 µM [4]?
The microsomal CLint at […], 10000 µM was 29 µL/min/mg.

What about the Vd [5] of the same molecule?
The Vd was 2.3 L/kg.

What about the AUC at 192 h [6] of the same molecule?
The AUC at 192 h was 5.2 µM·h.

What about the F [7] of the same molecule?
The F was 20%.

What about the Cmax [8] of the same molecule?
Its Cmax is 770 nM.

What about the half-life [9] of the same molecule?
The half-life was 6.5 h.

And the microsomal CLint at […], 10000 µM [10]?
The microsomal CLint at […], 10000 µM was 18 µL/min/mg.

What about the CLH [11] of the same molecule?
Its CLH is 2.5 µL/min/mg.

And the half-life at 1 µM [12]?
The half-life at 1 µM was greater than 2 h.

And the half-life at 1 µM [13]?
Its half-life at 1 µM is greater than 2 h.

And the half-life [14]?
Its half-life is greater than 2 h.

What about the Papp A→B at 2 h, 10000 µM [15] of the same molecule?
Its Papp A→B at 2 h, 10000 µM is 7.4 ×10⁻⁶ cm/s.

What about the CLH [16] of the same molecule?
Its CLH is 6.5 µL/min/mg.

What about the solubility thermodynamic at […] [17] of the same molecule?
The solubility thermodynamic at […] was 16 µM (≈ 8.12 µg/mL).

And the half-life at 1 µM [18]?
The half-life at 1 µM was greater than 2 h.

What about the half-life at 1 µM [19] of the same molecule?
The half-life at 1 µM was greater than 2 h.

What about the half-life [20] of the same molecule?
The half-life was greater than 2 h.

And the clearance [21]?
The clearance was 19 mL/min/kg.

And the Vd [22]?
The Vd was 3.9 L/kg.

And the AUC [23]?
The AUC was 3.6 µM·h.

And the half-life [24]?
Its half-life is 1.4 h.

What about the clearance [25] of the same molecule?
Its clearance is 8 mL/min/kg.

What about the microsomal CLint at […], 10000 µM [26] of the same molecule?
The microsomal CLint at […], 10000 µM was 34 µL/min/mg.

What about the half-life [27] of the same molecule?
Its half-life is 4.4 h.

What about the bioavailability [28] of the same molecule?
Its bioavailability is 20%.

What about the half-life at 1 µM [29] of the same molecule?
The half-life at 1 µM was 0.867 h.

And the Papp B→A at 2 h, 10000 µM [30]?
The Papp B→A at 2 h, 10000 µM was 11 ×10⁻⁶ cm/s.

What about the AUC at 192 h [31] of the same molecule?
The AUC at 192 h was 7.2 µM·h.

What about the Vd [32] of the same molecule?
The Vd was 3 L/kg.

What about the Cmax [33] of the same molecule?
Its Cmax is 1260 nM.

And the half-life [34]?
Its half-life is greater than 2 h.

And the microsomal CLint at […], 10000 µM [35]?
Its microsomal CLint at […], 10000 µM is 18 µL/min/mg.

What about the bioavailability [36] of the same molecule?
The bioavailability was 69%.

And the CLH [37]?
Its CLH is 11 µL/min/mg.

Which Drug metabolism [38] does the source give for `N#Cc1ccc(NC(=O)N2CCCc3ccc(CO)nc32)nc1` here?
The Drug metabolism was 1.3 nM.

What about the Drug metabolism [39] of the same molecule?
The Drug metabolism was 1.3 nM.
